Laboratory results from patent US12643892B2, “Pyridazinone compounds for the treatment of neuromuscular diseases” (Edgewise Therapeutics, Inc., priority 2020, dated 2026).
pIC50: −log10 of the molar value.

Target: Skeletal Myofibril ATPase (Rabbit Psoas myofibrils)
Assay: Skeletal Myofibril ATPase Assay
Format: biochemical
Conditions: PK/LDH-coupled NADH absorbance at 340 nm
Description: Overview: Myosin ATPase activity was assessed by using a coupled reaction system, in which ADP generated by the myosin ATPase function was coupled to the disappearance of NADH through the pyruvate kinase/lactate dehydrogenase (PK-LDH) system. Myosin ATPase activity produces ADP, which was used as a substrate for PK to produce pyruvate and regenerate ATP. The pyruvate was then used as a substrate by LDH to oxidize NADH to NAD+. The rate of the reaction was monitored through the time-dependent disappearance of NADH using absorbance at 340 nm. Inhibition of ATPase activity by the assayed compounds was indicated by a reduced rate of NADH loss, relative to vehicle-treated controls, over the experimental time window. To assess the selectivity of the assayed compounds for skeletal myofibrils, the compounds were counter-screened in cardiac myofibrils.
Materials: The following stock solutions and reagents were used in the Skeletal Myofibril ATPase Assay:
Stock Solutions of pCa buffer. Combine PIPES, CaCl2, and EGTA solutions with 70 mL of water. Adjust pH to 7.0 and bring final volume to 100 mL.
Buffer A & Buffer B. Buffers were stored on ice until use.
Skeletal Myofibril ATPase Assay Procedure: BSA, ATP, NADH, PEP, and DTT solutions were thawed at room temperature, then transferred to ice. Pellet-frozen myofibrils (approximately twice the required volume) were transferred into a sufficiently large tube and capped. Myofibrils were thawed by rolling in a water bath for approximately 15 min at room temperature and cooled on ice. Buffers A and B were prepared by adjusting volumes as necessary for required number of wells and stored on ice. 0.5 μL of the compounds to be assayed were added into wells of a 384-well plate. Buffers A and B were mixed by inversion immediately prior to use, then 25 μL of each was dispensed using a Multidrop dispenser (Buffer A first, then Buffer B). The absorbance within the wells was measured at 340 nm, using a kinetic protocol in which the wells are read every 1.5-2 min for 1 h. The reaction rate was qualitatively assessed by subtracting the minimum absorbance value from the maximum value for each well, using either the SoftMax Pro plate reader software or a spreadsheet program such as Excel. Using GraphPad Prism 8.0, the data was normalized, with 100% activity defined as the absorbance change in the 1% DMSO vehicle wells and 0% assigned to no change in absorbance over the course of the experiment. The normalized data were fit to a variable-slope four-parameter logistic model, constraining the bottom to be 0 or greater. Compounds of Table 1 to 3 were tested and results of the assay appear in Table 4 herein. A=IC50 is less than or equal to 10 μM; B=IC50 is greater than 10 μM and less than 100 μM; C=IC50 is greater than 100 μM.

`CCNC(=O)Cn1nc(-c2nnc(-c3cncc(C(F)(F)F)c3)s2)ccc1=O` [Compound 19, N-ethyl-2-(6-oxo-3-(5-(5-(trifluoromethyl)pyridin-3-yl)-1,3,4-thiadiazol-2-yl)pyridazin-1(6H)-yl)acetamide] was tested. Which pIC50 did it give?
Its pIC50 is ≥ 5.00.

With `O=c1ccc(-c2nc(-c3ccc(Cl)cc3)no2)cn1Cc1cccnc1` [Compound 125, 5-(3-(4-chlorophenyl)-1,2,4-oxadiazol-5-yl)-1-(pyridin-3-ylmethyl)pyridin-2(1H)-one] as the compound, how does the pIC50 read?
Its pIC50 is < 3.92.

With `O=c1ccc(-c2nc(-c3cccc(Cl)c3)no2)cn1Cc1cncnc1` [Compound 85, 5-(3-(3-chlorophenyl)-l,2,4-oxadiazol-5-yl)-1-(pyrimidin-5-ylmethyl)pyridin-2(1H)-one] as the compound, how does the pIC50 read?
The pIC50 was ≥ 5.00.

With `O=c1ccc(-c2nc(-c3cccc(Cl)c3)no2)nn1Cc1cncc(F)c1` [Compound 64, 6-(3-(3-chlorophenyl)-1,2,4-oxadiazol-5-yl)-2-((5-fluoropyridin-3-yl)methyl)pyridazin-3(2H)-one] as the compound, how does the pIC50 read?
The pIC50 was ≥ 5.00.

`Cc1noc(-c2ccc(=O)n(Cc3ccccc3F)n2)n1` [Compound 70, 2-(2-fluorobenzyl)-6-(3-methyl-1,2,4-oxadiazol-5-yl)pyridazin-3(2H)-one] was tested. Which pIC50 did it give?
The pIC50 was 4.00 to 5.00.

With `O=C(Cn1nc(-c2nc(-c3cccc(Cl)c3)no2)ccc1=O)NC1CCC1` [Compound 5, 2-(3-(3-(3-chlorophenyl)-1,2,4-oxadiazol-5-yl)-6-oxopyridazin-1(6H)-yl)-N-cyclobutylacetamide] as the compound, how does the pIC50 read?
Its pIC50 is ≥ 5.00.

`Cc1ccc(-c2ccc(=O)n(CCOc3cccc(C#N)c3)n2)s1` [Compound 61, 3-(2-(3-(5-methylthiophen-2-yl)-6-oxopyridazin-1(6H)-yl)ethoxy)benzonitrile] was tested. Which pIC50 did it give?
The pIC50 was < 4.00.

With `O=C(Cn1nc(-c2cccs2)ccc1=O)Nc1ccc2c(c1)OCCO2` [Compound 46, N-(2,3-dihydrobenzo[b][1,4]dioxin-6-yl)-2-(6-oxo-3-(thiophen-2-yl)pyridazin-1(6H)-yl)acetamide] as the compound, how does the pIC50 read?
The pIC50 was < 4.00.

`Cc1cc(Cn2nc(-c3nc(-c4cccc(Cl)c4)no3)ccc2=O)on1` [Compound 63, 6-(3-(3-chlorophenyl)-1,2,4-oxadiazol-5-yl)-2-((3-methylisoxazol-5-yl)methyl)pyridazin-3(2H)-one] was tested. Which pIC50 did it give?
The pIC50 was ≥ 5.00.

`Cc1cccc(-c2noc(-c3ccc(=O)n(Cc4ccc(OC(F)F)nc4)c3)n2)c1` [Compound 93, 1-((6-(difluoromethoxy)pyridin-3-yl)methyl)-5-(3-(m-tolyl)-1,2,4-oxadiazol-5-yl)pyridin-2(1H)-one] was tested. Which pIC50 did it give?
The pIC50 was ≥ 5.00.

How did the pIC50 turn out when `O=c1ccc(-c2nc(-c3cccnc3)no2)nn1Cc1ccccc1F` [Compound 68, 2-(2-fluorobenzyl)-6-(3-(pyridin-3-yl)-1,2,4-oxadiazol-5-yl)pyridazin-3(2H)-one] was run?
The pIC50 was 4.00 to 5.00.

How did the pIC50 turn out when `O=c1ccc(-c2nc(-c3ccncc3)no2)cn1Cc1ccccc1C(F)(F)F` [Compound 120, 5-(3-(pyridin-4-yl)-1,2,4-oxadiazol-5-yl)-1-(2-(trifluoromethyl)benzyl)pyridin-2(1H)-one] was run?
Its pIC50 is < 3.92.

`Cc1noc(-c2ccc(=O)n(Cc3ccc(F)cc3)n2)n1` [Compound 69, 2-(4-fluorobenzyl)-6-(3-methyl-1,2,4-oxadiazol-5-yl)pyridazin-3(2H)-one] was tested. Which pIC50 did it give?
The pIC50 was 4.00 to 5.00.

`CCC(C)(C)NC(=O)Cn1nc(-c2ccc(C)s2)ccc1=O` [Compound 82, 2-(3-(5-methylthiophen-2-yl)-6-oxopyridazin-1(6H)-yl)-N-(tert-pentyl)acetamide] was tested. Which pIC50 did it give?
The pIC50 was ≥ 5.00.

With `Cn1ccc2c(NC(=O)Cn3nc(-c4cccs4)ccc3=O)cccc21` [Compound 83, N-(1-methyl-1H-indol-4-yl)-2-(6-oxo-3-(thiophen-2-yl)pyridazin-1(6H)-yl)acetamide] as the compound, how does the pIC50 read?
Its pIC50 is ≥ 5.00.

With `Cc1ccc(-c2ccc(=O)n(CC(=O)NCc3ccccc3F)n2)s1` [Compound 34, N-(2-fluorobenzyl)-2-(3-(5-methylthiophen-2-yl)-6-oxopyridazin-1(6H)-yl)acetamide] as the compound, how does the pIC50 read?
The pIC50 was ≥ 5.00.

`CCNC(=O)Cn1nc(-c2nc(-c3ccc(F)c(F)c3)no2)ccc1=O` [Compound 8, 2-(3-(3-(3,4-difluorophenyl)-1,2,4-oxadiazol-5-yl)-6-oxopyridazin-1(6H)-yl)-N-ethylacetamide] was tested. Which pIC50 did it give?
Its pIC50 is ≥ 5.00.

How did the pIC50 turn out when `O=c1ccc(-c2nc(C3CC3)no2)cn1Cc1c(F)cccc1Cl` [Compound 123, 1-(2-chloro-6-fluorobenzyl)-5-(3-cyclopropyl-1,2,4-oxadiazol-5-yl)pyridin-2(1H)-one] was run?
The pIC50 was < 3.92.

`COCCn1nc(-c2nc(-c3ccc(F)c(C)c3)no2)ccc1=O` [Compound 74, 6-(3-(4-fluoro-3-methylphenyl)-l,2,4-oxadiazol-5-yl)-2-(2-methoxyethyl)pyridazin-3(2H)-one] was tested. Which pIC50 did it give?
Its pIC50 is 4.00 to 5.00.

How did the pIC50 turn out when `O=c1ccc(-c2nc(-c3ccccc3F)no2)cn1Cc1cccnc1` [Compound 111, 5-(3-(2-fluorophenyl)-1,2,4-oxadiazol-5-yl)-1-(pyridin-3-ylmethyl)pyridin-2(1H)-one] was run?
Its pIC50 is < 3.92.

With `CCNC(=O)Cn1nc(-c2nc(-c3cccc(OC)c3)no2)ccc1=O` [Compound 4, N-ethyl-2-(3-(3-(3-methoxyphenyl)-1,2,4-oxadiazol-5-yl)-6-oxopyridazin-1(6H)-yl)acetamide] as the compound, how does the pIC50 read?
The pIC50 was ≥ 5.00.

`Cc1cnc(-c2ccc(=O)n(CC(=O)NCc3ccccc3Cl)n2)s1` [Compound 26, N-(2-chlorobenzyl)-2-(3-(5-methylthiazol-2-yl)-6-oxopyridazin-1(6H)-yl)acetamide] was tested. Which pIC50 did it give?
Its pIC50 is ≥ 5.00.

With `CCNC(=O)Cn1nc(-c2ncc(-c3cccc(Cl)c3)o2)ccc1=O` [Compound 27, 2-(3-(5-(3-chlorophenyl)oxazol-2-yl)-6-oxopyridazin-1(6H)-yl)-N-ethylacetamide] as the compound, how does the pIC50 read?
The pIC50 was ≥ 5.00.

How did the pIC50 turn out when `O=c1ccc(-c2nc(-c3ccsc3)no2)cn1Cc1ccccc1C(F)(F)F` [Compound 115, 5-(3-(thiophen-3-yl)-1,2,4-oxadiazol-5-yl)-1-(2-(trifluoromethyl)benzyl)pyridin-2(1H)-one] was run?
Its pIC50 is < 3.92.

With `O=C(Cn1nc(-c2cccs2)ccc1=O)Nc1ccc2cc[nH]c2c1` [Compound 48, N-(1H-indol-6-yl)-2-(6-oxo-3-(thiophen-2-yl)pyridazin-1(6H)-yl)acetamide] as the compound, how does the pIC50 read?
Its pIC50 is < 4.00.

With `CCNC(=O)Cn1nc(-c2nc(-c3cccc(OC(F)(F)F)c3)no2)ccc1=O` [Compound 6, N-ethyl-2-(6-oxo-3-(3-(3-(trifluoromethoxy)phenyl)-1,2,4-oxadiazol-5-yl)pyridazm-1(6H)-yl)acetamide] as the compound, how does the pIC50 read?
The pIC50 was ≥ 5.00.

`CCNC(=O)Cn1nc(-c2nc(-c3cccc(Cl)c3)cs2)ccc1=O` [Compound 81, 2-(3-(4-(3-chlorophenyl)thiazol-2-yl)-6-oxopyridazin-1(6H)-yl)-N-ethylacetamide] was tested. Which pIC50 did it give?
The pIC50 was < 4.00.

`O=c1ccc(-c2nc(-c3cncc(Cl)c3)no2)nn1Cc1ccccc1` [Compound 66, 2-benzyl-6-(3-(5-chloropyridin-3-yl)-1,2,4-oxadiazol-5-yl)pyridazin-3(2H)-one] was tested. Which pIC50 did it give?
The pIC50 was ≥ 5.00.

`O=C(Cn1nc(-c2cccs2)ccc1=O)Nc1ccc(Cl)cc1Cl` [Compound 42, N-(2,4-dichlorophenyl)-2-(6-oxo-3-(thiophen-2-yl)pyridazin-1(6H)-yl)acetamide] was tested. Which pIC50 did it give?
Its pIC50 is < 4.00.

`O=c1ccc(-c2nc(-c3ccc(Cl)cc3)no2)cn1Cc1ccc(Cl)c(Cl)c1` [Compound 124, 5-(3-(4-chlorophenyl)-1,2,4-oxadiazol-5-yl)-1-(3,4-dichlorobenzyl)pyridm-2(1H)-one] was tested. Which pIC50 did it give?
Its pIC50 is < 3.92.
